Starred links: 1 amine or outer side, 2 acyl side, 3 side chain; linkers in the order of their positions; H or OH if unused. Non-standard residues stand in square brackets, D forms with d. Residues, ends and D or L forms follow the SMILES beside them. Groups on a side chain read outwards from the residue. *: point of attachment. C20 diacid = O=C(O)CCCCCCCCCCCCCCCCCCC(=O)*; C18 diacid = O=C(O)CCCCCCCCCCCCCCCCC(=O)*; γGlu = O=C(O)[C@H](CCC(=O)[*:2])N[*:1]; NMeI = CC[C@H](C)[C@H](NC)C(=O)O; AEEA = NCCOCCOCC(=O)O

As a reminder, the AUC(0-inf) is the area under the concentration-time curve extrapolated to infinity. Low readings indicate less exposure, high ones more exposure. As a reminder, the CL/F is the apparent clearance, not corrected for the fraction that reaches the circulation. For orientation: Cmax means the highest concentration seen after dosing. As a reminder, the Tmax is the time from dosing to the highest level. One may read the half-life as how long it takes for the measured level to halve. One may read the EC50 as the concentration needed to bring the measured effect to its halfway point.

The nature of data set [1]: Pharmacokinetics, single subcutaneous dose, mice. Particulars: male, CD-1, mouse, plasma, sc, 388 nmol/kg.
The target in another data set is T1, human CRHR2b (Homo sapiens, UniProt Q13324).
T1 construct: expressed in transfected cells; host or cells: Chinese Hamster Ovary (CHO) cells, transient transfection
T1 sequence (Q13324 1-438 isoform Q13324-2): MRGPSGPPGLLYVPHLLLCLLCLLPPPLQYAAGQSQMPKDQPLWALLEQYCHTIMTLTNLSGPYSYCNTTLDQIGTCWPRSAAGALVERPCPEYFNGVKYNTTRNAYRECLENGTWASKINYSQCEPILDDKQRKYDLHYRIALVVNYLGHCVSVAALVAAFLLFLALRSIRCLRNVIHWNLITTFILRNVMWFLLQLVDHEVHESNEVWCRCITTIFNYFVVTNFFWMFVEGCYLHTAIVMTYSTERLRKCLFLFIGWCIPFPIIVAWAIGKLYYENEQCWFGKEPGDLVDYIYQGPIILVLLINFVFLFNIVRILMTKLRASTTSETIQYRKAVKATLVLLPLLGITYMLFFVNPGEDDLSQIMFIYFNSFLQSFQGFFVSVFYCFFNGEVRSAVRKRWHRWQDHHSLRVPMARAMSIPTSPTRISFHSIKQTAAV
As to the kind of experiment: human CRHR2b cell-based cAMP assay. The settings on record: cAMP assay, CHO cells transfected with human CRHR2b; mean ± SEM of runs; read-out: hCRHR2b Average EC50. A digest of the protocol: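 ED50 values are means ± SEM over several runs, curve-fitted from cAMP in pmol, calibrated against unlabeled-cAMP standards. Detection was HTRF competition, ratio 665/620 nm, after 30 min agonist exposure at 37 °C.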
A general note: cAMP levels reflect the balance of adenylyl cyclase and phosphodiesterase activity.

In a further data set the target is T2, human CRHR1 (Homo sapiens, UniProt P34998).
T2 construct: which expresses endogenous human CRHR1; host or cells: Y79 human retinoblastoma cells
T2 sequence (P34998 24-415): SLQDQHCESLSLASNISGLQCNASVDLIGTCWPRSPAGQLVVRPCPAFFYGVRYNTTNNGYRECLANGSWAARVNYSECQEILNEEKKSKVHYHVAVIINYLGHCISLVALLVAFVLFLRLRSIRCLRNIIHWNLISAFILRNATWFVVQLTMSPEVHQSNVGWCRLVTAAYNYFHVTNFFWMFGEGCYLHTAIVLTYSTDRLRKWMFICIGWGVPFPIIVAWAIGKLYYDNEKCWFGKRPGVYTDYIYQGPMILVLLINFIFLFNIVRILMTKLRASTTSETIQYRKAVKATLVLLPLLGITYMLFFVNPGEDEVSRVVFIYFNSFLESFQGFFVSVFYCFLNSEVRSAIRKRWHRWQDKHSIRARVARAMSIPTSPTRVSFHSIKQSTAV
As to the kind of experiment: human CRHR1 cell-based cAMP assay (Y79 cells). The settings on record: Y79 cells with endogenous human CRHR1, mean ± SEM of runs, read-out: hCRHR1 Average EC50. As for the experimental part: CRHR agonistic activity is measured in a cell-based cAMP assay. Serial dilutions of the test peptides are made in assay buffer containing Hank's Balanced Salt Solution (HBSS, without phenol red) supplemented with 20 mM HEPES and 0.05% lactalbumin enzymatic hydrolysate (LAH) (“assay buffer”). The highest concentration that is used starts from 1 μM in the human CRHR2b, whereas 100 μM starting concentration is used in the human CRHR1 assay. A one to three dilution of the test peptides is used in both assays.
The human Retinoblastoma cell line Y79 (ATCC #HTB-18), which expresses endogenous human CRHR1, is used in the human CRHR1 assay. The cells are grown in RPMI 1640 (Hyclone, #SH30255) containing 20% fetal bovine serum and 10 mM HEPES, in suspension culture. Cells are centrifuged to remove the culture media and washed once in HBSS supplemented with 20 mM HEPES. The cells are resuspended in the assay buffer and 20,000 cells are used per treatment in the human CRHR1 assay.
The cells are dispensed into Costar 96-well black polystyrene half area EIA/RIA plates (Corning Incorporated, Corning, N.Y.) followed by the addition of the diluted peptides, each at a volume of 20 μL. The agonist induced cAMP levels are detected using a HTRF cAMP Dynamic 2 kit (CisBio, Bedford, Mass.). After incubation at 37° C. for 30 min, the assay is stopped by cell lysis via the addition of 20 μL of d2-labeled cAMP and followed by 20 μL of cryptate-labeled anti-cAMP antibody, as described by the manufacturer. Cellular cAMP (as a result of agonist stimulation) competes with the d2-labeled cAMP for binding to the antibody. HTRF detection is performed on an Envision plate reader (Perkin Elmer Life and Analytical Sciences, Waltham, Mass.) by measuring ratiometric emission at 620 and 665 nm after excitation at 320 nm.
The data are converted to picomoles of cAMP using a standard curve obtained from the same assay performed with varying concentrations of unlabeled cAMP. Percent of the maximum activation of the cells is calculated using converted picomole cAMP data by comparing to the amount of cAMP produced by 1 μM human UCN2 for the human CRHR2b or 1 μM human UCN1 for the human CRHR1 assay. The data are analyzed using a Curve Fitting Tool to calculate ED50. Numeric values shown below in Table 1 represent the mean of multiple runs (number of runs shown in parentheses) following the mean value±SEM.

As for `CC[C@H](C)[C@H](NC(C)=O)C(=O)N[C@H](C(=O)N[C@@H](CC(C)C)C(=O)N[C@@H](CO)C(=O)N[C@@H](CC(C)C)C(=O)N[C@@H](CC(=O)O)C(=O)N[C@H](C(=O)N1CCC[C@H]1C(=O)N[C@H](C(=O)NCC(=O)N[C@@H](CC(C)C)C(=O)N[C@@H](CC(C)C)C(=O)N[C@@H](CCC(N)=O)C(=O)N[C@H](C(=O)N[C@@H](CC(C)C)C(=O)N[C@@H](CC(C)C)C(=O)N[C@@H](CCC(=O)O)C(=O)N[C@@H](CCC(N)=O)C(=O)N[C@@H](CCC(=O)O)C(=O)N[C@@H](CCCCN)C(=O)N[C@@H](CCC(N)=O)C(=O)N[C@@H](CCC(=O)O)C(=O)N[C@@H](CCCCN)C(=O)N[C@@H](CCC(=O)O)C(=O)N[C@@H](CCCCN)C(=O)N[C@@H](CCC(N)=O)C(=O)N[C@@H](CCC(N)=O)C(=O)N[C@@H](C)C(=O)N[C@@H](CCCCNC(=O)COCCOCCNC(=O)COCCOCCNC(=O)CC[C@H](NC(=O)CC[C@H](NC(=O)CCCCCCCCCCCCCCCCC(=O)O)C(=O)O)C(=O)O)C(=O)N[C@H](C(=O)N[C@@H](CC(N)=O)C(=O)N[C@@H](C)C(=O)N[C@@H](CCC(N)=O)C(=O)N[C@H](C(=O)N[C@@H](CC(C)C)C(=O)N[C@@H](C)C(=O)N[C@@H](CCC(N)=O)C(=O)N[C@H](C(N)=O)C(C)C)[C@@H](C)CC)[C@@H](C)O)[C@@H](C)CC)[C@@H](C)CC)C(C)C)C(C)C` [Example 1] (Ac-IVLSLDVPIGLLQILLEQEKQEKEKQQAK([AEEA-AEEA-γGlu-γGlu-C18 diacid])TNAQILAQV-NH2), in data set [1], the AUC(0-inf) is 32.2 µM·h, the CL/F is 0.202 mL/min/kg, the peak level (Cmax) was 1150 nM and the Tmax was 12 h. In addition, the half-life in data set [1] was 16 h. For the same compound, at human CRHR2b, the EC50 is 2.44 ± 1.36 nM.
On to `CC[C@H](C)[C@H](NC)C(=O)N[C@H](C(=O)N[C@@H](CC(C)C)C(=O)N[C@@H](CO)C(=O)N[C@@H](CC(C)C)C(=O)N[C@@H](CC(=O)O)C(=O)N[C@H](C(=O)N1CCC[C@H]1C(=O)N[C@H](C(=O)NCC(=O)N[C@@H](CC(C)C)C(=O)N[C@@H](CC(C)C)C(=O)N[C@@H](CCC(N)=O)C(=O)N[C@H](C(=O)N[C@@H](CC(C)C)C(=O)N[C@@H](CC(C)C)C(=O)N[C@@H](CCC(=O)O)C(=O)N[C@@H](CCC(N)=O)C(=O)N[C@@H](CCC(=O)O)C(=O)N[C@@H](CCCCN)C(=O)N[C@@H](CCC(N)=O)C(=O)N[C@@H](CCC(=O)O)C(=O)N[C@@H](CCCCN)C(=O)N[C@@H](CCC(=O)O)C(=O)N[C@@H](CCCCN)C(=O)N[C@@H](CCC(N)=O)C(=O)N[C@@H](CCC(N)=O)C(=O)N[C@@H](C)C(=O)N[C@@H](CCCCNC(=O)COCCOCCNC(=O)COCCOCCNC(=O)CC[C@H](NC(=O)CC[C@H](NC(=O)CCCCCCCCCCCCCCCCCCC(=O)O)C(=O)O)C(=O)O)C(=O)N[C@H](C(=O)N[C@@H](CC(N)=O)C(=O)N[C@@H](C)C(=O)N[C@@H](CCC(=O)O)C(=O)N[C@H](C(=O)N[C@@H](CC(C)C)C(=O)N[C@@H](C)C(=O)N[C@@H](CCC(N)=O)C(=O)N[C@H](C(N)=O)C(C)C)[C@@H](C)CC)[C@@H](C)O)[C@@H](C)CC)[C@@H](C)CC)C(C)C)C(C)C` [Example 6] (H-[NMeI]VLSLDVPIGLLQILLEQEKQEKEKQQAK([AEEA-AEEA-γGlu-γGlu-C20 diacid])TNAEILAQV-NH2), for which the concentration for a half-maximal effect (EC50) on human CRHR2b is 2.5 ± 1.06 nM; on human CRHR1 it was more than 100000 nM.

The values are drawn from patent US10894817B2, “Fatty acid modified urocortin-2 analogs for the treatment of diabetes and chronic kidney disease” (priority 2016, dated 2021).
